biological target: T1, Human CYP8B1 (Homo sapiens, UniProt Q9UNU6); assay: Human CYP8B1 Liver Microsome Assay; conditions: Human CYP8B1 IC50, human liver microsomes; substrate 7a-hydroxy-4-cholesten-3-one, NADPH; RapidFire MS detection of 7α,12α-dihydroxy-4-cholesten-3-one
T1 sequence (Q9UNU6 1-501): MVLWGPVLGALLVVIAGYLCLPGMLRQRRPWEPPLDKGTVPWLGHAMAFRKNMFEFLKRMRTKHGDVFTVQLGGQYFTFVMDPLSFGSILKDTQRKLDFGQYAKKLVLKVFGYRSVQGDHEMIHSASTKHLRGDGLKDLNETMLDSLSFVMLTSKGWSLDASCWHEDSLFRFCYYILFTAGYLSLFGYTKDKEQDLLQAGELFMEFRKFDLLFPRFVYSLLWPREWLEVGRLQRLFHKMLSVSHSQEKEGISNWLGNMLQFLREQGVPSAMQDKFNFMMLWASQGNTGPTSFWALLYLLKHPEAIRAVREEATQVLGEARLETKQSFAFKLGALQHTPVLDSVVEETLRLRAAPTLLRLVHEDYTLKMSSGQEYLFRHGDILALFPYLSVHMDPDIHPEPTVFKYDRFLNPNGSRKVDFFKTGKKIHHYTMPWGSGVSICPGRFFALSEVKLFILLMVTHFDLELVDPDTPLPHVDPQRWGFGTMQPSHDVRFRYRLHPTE
Protocol: To a 384 well polypropylene plate (Corning 3656), 250 nl of inhibitor in 100% DMSO (1.25% final DMSO concentration) was pre-plated using an Echo liquid handler (Labcyte Inc.). Human liver microsomes (Xenotech) were diluted in of 0.1 M phosphate buffer, pH 7.4, at a concentration of 65 μg/ml and 15 μL was added to the 384 well plate. The plates were incubated at ambient room temperature for 30 minutes. After pre-incubation with inhibitor, the reaction was initiated by adding 5 μl of substrate solution (4.0 μM 7a-hydroxy-4-cholesten-3-one (Toronto Research Chemicals), 2 mM of NADPH (Sigma), 0.1 M phosphate buffer (pH 7.4). The reaction was carried out for 45 minutes at ambient room temperature and was quenched by the addition of 50 μl of acetonitrile+0.1% vol/vol formic acid (FA)+300 nM 7α-hydroxy-4-cholesten-3-one-d7 (Toronto Research Chemicals). The plates were sealed and centrifuged at 3000 rpm for 5 minutes. Plates were loaded onto the Agilent RapidFire RF300 HTMS system, wherein samples were sipped for 600 ms, and the sip sensor detection signals the diversion of sample from the loop onto a C4 solid phase extraction (SPE) cartridge, where salts are washed off for 2500 ms with a mobile phase of water with 0.1% vol/vol FA at a flow rate of 1.5 ml/min. The column path was switched, and the sample was eluted off the cartridge and flowed into the mass spectrometer for 3000 ms with a mobile phase of acetonitrile and 0.1% vol/vol FA at a flow rate of 1.25 ml/min. The aspirator tip was washed separately with water and acetonitrile between sample aspirations (each for 600 ms) to minimize carryover contamination. Mass spectrometry was carried out using a Sciex API4000 triple quadrupole mass spectrometer (Applied Biosystems, Concord, ON, Canada) equipped with electrospray ionization (ESI) operated in the positive-ion mode. The product 7α,12α-dihydroxy-4-cholesten-3-one and internal standard 7α-hydroxy-4-cholsten-3-one-d7 were detected using multiple reaction monitoring (MRM) with Q1/Q3 transitions at m/z 417.3 to 381.3 and m/z 408.3 to 390.3, respectively, with a dwell time of 100 ms and a collision energy of 24 V for each transition. The mass spectrometer used an ESI voltage of 5000 V and a source temperature of 650° C. Extracted ion chromatograms for each transition were integrated and processed using the RapidFire Integrator software. The data for each well were normalized by monitoring product conversion with the ratio of AUCproduct/(AUCinternal standard). The data was then fitted to a four parameter logistic fit using ActivityBase Software to calculate an IC50 of the inhibitor.

Row | SMILES | IC50
1 | COc1ccc2c(N3CCC(C(=O)N4CCn5c(nnc5C(F)(F)F)C4)CC3)c(C#N)cnc2c1 [Example 44, 7-methoxy-4-(4-{[3-(trifluoromethyl)-5,6-dihydro[1,2,4]triazolo[4,3-a]pyrazin-7(8H)-yl]carbonyl}piperidin-1-yl)quinoline-3-carbonitrile] | 32 nM
2 | Cc1nc2ccc(C(F)F)cc2c(N2CCC(C(=O)N3CCn4c(nnc4C(F)(F)F)C3)CC2)c1C#N [Example 55, 6-(difluoromethyl)-2-methyl-4-(4-(3-(trifluoromethyl)-5,6,7,8-tetrahydro-[1,2,4]triazolo[4,3-a]pyrazine-7-carbonyl)piperidin-1-yl)quinoline-3-carbonitrile] | 78 nM
3 | C=Cc1ccc2nc(C)c(C#N)c(N3CCC(C(=O)N4CCn5c(nnc5C(F)(F)F)C4)CC3)c2c1 [Example 54, 2-methyl-4-(4-(3-(trifluoromethyl)-5,6,7,8-tetrahydro-[1,2,4]triazolo[4,3-a]pyrazine-7-carbonyl)piperidin-1-yl)-6-vinylquinoline-3-carbonitrile] | 149 nM
4 | COc1ccc2nc(C)c(C#N)c(N3CCC(C(=O)N4CCn5c(nnc5C(F)(F)F)C4)CC3)c2c1 [Example 47, 6-methoxy-2-methyl-4-(4-(3-(trifluoromethyl)-5,6,7,8-tetrahydro-[1,2,4]triazolo[4,3-a]pyrazin-7-carbonyl)piperidin-1-yl)quinoline-3-carbonitrile] | 564 nM
5 | C[C@@H]1CN(c2c(C#N)cnc3c(F)c(C(F)(F)F)ccc23)CC[C@@H]1C(=O)N1CCn2c(nnc2C(F)(F)F)C1 [Example 17, 8-fluoro-4-[(3S,4S)-3-methyl-4-{[3-(trifluoromethyl)-5,6-dihydro[1,2,4]triazolo[4,3-a]pyrazin-7(8H)-yl]carbonyl}piperidin-1-yl]-7-(trifluoromethyl)quinoline-3-carbonitrile] | 0.36 nM
6 | COc1cccc2nc(C)c(C#N)c(N3CC[C@H](C(=O)N4CCn5c(nnc5C(F)(F)F)C4)[C@H](C)C3)c12 [Example 35, 5-methoxy-2-methyl-4-[(3S,4S)-3-methyl-4-{[3-(trifluoromethyl)-5,6-dihydro[1,2,4]triazolo[4,3-a]pyrazin-7(8H)-yl]carbonyl}piperidin-1-yl]quinoline-3-carbonitrile] | 1.4 nM
7 | COc1ccc2c(N3CC[C@H](C(=O)N4CCn5c(nnc5C(F)(F)F)C4)[C@H](C)C3)c(C#N)cnc2c1C [Example 19, 7-methoxy-8-methyl-4-[(3S,4S)-3-methyl-4-{[3-(trifluoromethyl)-5,6-dihydro[1,2,4]triazolo[4,3-a]pyrazin-7(8H)-yl]carbonyl}piperidin-1-yl]quinoline-3-carbonitrile] | 0.2 nM
8 | C[C@@H]1CN(c2c(C#N)cnc3cc(C(F)(F)F)ccc23)CC[C@@H]1C(=O)N1CCn2c(nnc2C(F)(F)F)C1 [Example 24, 4-((3S,4S)-3-methyl-4-(3-(trifluoromethyl)-5,6,7,8-tetrahydro-[1,2,4]triazolo[4,3-a]pyrazine-7-carbonyl)piperidin-1-yl)-7-(trifluoromethyl)quinoline-3-carbonitrile] | 0.4 nM
9 | C[C@@H]1CN(c2c(C#N)cnc3cc(F)c(F)cc23)CC[C@@H]1C(=O)N1CCn2c(nnc2C(F)(F)F)C1 [Example 25, 6,7-difluoro-4-[(3S,4S)-3-methyl-4-{[3-(trifluoromethyl)-5,6-dihydro[1,2,4]triazolo[4,3-a]pyrazin-7(8H)-yl]carbonyl}piperidin-1-yl]quinoline-3-carbonitrile] | 0.36 nM
10 | C[C@@H]1CN(c2c(C#N)cnc3cc(Br)ccc23)CC[C@@H]1C(=O)N1CCn2c(nnc2C(F)(F)F)C1 [Example 4, 7-bromo-4-[(3S,4S)-3-methyl-4-{[3-(trifluoromethyl)-5,6-dihydro[1,2,4]triazolo[4,5-a]pyrazin-7(8H)-yl]carbonyl}piperidin-1-yl]quinoline-3-carbonitrile] | 0.36 nM
11 | C[C@@H]1CN(c2c(C#N)cnc3cc(O)ccc23)CC[C@@H]1C(=O)N1CCn2c(nnc2C(F)(F)F)C1 [Example 5, 7-hydroxy-4-[(3S,4S)-3-methyl-4-{[3-(trifluoromethyl)-5,6-dihydro[1,2,4]triazolo[4,3-a]pyrazin-7(8H)-yl]carbonyl}piperidin-1-yl]quinoline-3-carbonitrile] | 1.4 nM
12 | Cc1nc2ccc(F)cc2c(N2CC[C@H](C(=O)N3CCn4c(nnc4C(F)(F)F)C3)[C@H](C)C2)c1C#N [Example 29, 6-fluoro-2-methyl-4-[(3S,4S)-3-methyl-4-{[3-(trifluoromethyl)-5,6-dihydro[1,2,4]triazolo[4,3-a]pyrazin-7(8H)-yl]carbonyl}piperidin-1-yl]quinoline-3-carbonitrile] | 9.4 nM
13 | C[C@@H]1CN(c2c(C#N)cnc3cc(C4CC4)ccc23)CC[C@@H]1C(=O)N1CCn2c(nnc2C(F)(F)F)C1 [Example 63] | 1.1 nM
14 | COc1cc2ncc(C#N)c(N3CC[C@H](C(=O)N4CCn5c(nnc5C(F)(F)F)C4)[C@H](C)C3)c2cc1Br [Example 20, 6-bromo-7-methoxy-4-[(3S,4S)-3-methyl-4-{[3-(trifluoromethyl)-5,6-dihydro[1,2,4]triazolo[4,3-a]pyrazin-7(8H)-yl]carbonyl}piperidin-1-yl]quinoline-3-carbonitrile] | 0.24 nM
15 | C[C@@H]1CN(c2c(C#N)cnc3c(Cl)c(F)ccc23)CC[C@@H]1C(=O)N1CCn2c(nnc2C(F)(F)F)C1 [Example 13, 8-chloro-7-fluoro-4-[(3S,4S)-3-methyl-4-{[3-(trifluoromethyl)-5,6-dihdyro[1,2,4]triazolo[4,3-a]pyrazin-7(8H)-yl]carbonyl}piperidin-1-yl]quinoline-3-carbonitrile] | 3.3 nM

Next, values leading:

Row | IC50 | SMILES
16 | 0.4 nM | C[C@@H]1CN(c2c(C#N)cnc3ccc(Cl)cc23)CC[C@@H]1C(=O)N1CCn2c(nnc2C(F)(F)F)C1 (single isomer, unassigned) [Example 116a]
17 | 28 nM | Cc1nc2ccc(Cl)cc2c(N2CC[C@H](C(=O)N3CCc4c(n[nH]c4C(F)(F)F)C3)[C@H](C)C2)c1C#N [Example 93, 6-chloro-2-methyl-4-[(3S,4S)-3-methyl-4-{[3-(trifluoromethyl)-2,4,5,7-tetrahydro-6H-pyrazolo[3,4-c]pyridin-6-yl]carbonyl}piperidin-1-yl]quinoline-3-carbonitrile]
18 | 0.7 nM | C[C@@H]1CN(c2c(C#N)cnc3c(F)cc(C(F)F)cc23)CC[C@@H]1C(=O)N1CCn2c(nnc2C(F)(F)F)C1 [Example 88, 6-(difluoromethyl)-8-fluoro-4-((3S,4S)-3-methyl-4-(3-(trifluoromethyl)-5,6,7,8-tetrahydro-[1,2,4]triazolo[4,3-a]pyrazine-7-carbonyl)piperidin-1-yl)quinoline-3-carbonitrile]
19 | 35 nM | Cc1nc2ccc(Cl)cc2c(N2CC[C@H](C(=O)N3CCc4n[nH]c(C(F)(F)F)c4C3)[C@H](C)C2)c1C#N [Example 92, 6-chloro-2-methyl-4-[(3S,4S)-3-methyl-4-{[3-(trifluoromethyl)-2,4,6,7-tetrahydro-5H-pyrazolo[4,3-c]pyridin-5-yl]carbonyl}piperidin-1-yl]quinoline-3-carbonitrile]
20 | 8.1 nM | CCc1nnc2n1CCN(C(=O)C1CCN(c3c(C#N)cnc4ccc(Cl)cc34)CC1)C2 [Example 106, 6-chloro-4-{4-[(3-ethyl-5,6-dihydro[1,2,4]triazolo[4,3-a]pyrazin-7(8H)-yl)carbonyl]piperidin-1-yl}quinoline-3-carbonitrile]
21 | 1670 nM | CC(C)c1ncc2n1CCN(C(=O)C1CCN(c3c(C#N)cnc4ccc(Cl)cc34)CC1)C2 [Example 115, 6-chloro-4-(4-{[3-(propan-2-yl)-5,6-dihydroimidazo[1,5-a]pyrazin-7(8H)-yl]carbonyl}piperidin-1-yl)quinoline-3-carbonitrile]
22 | 4.2 nM | Cc1nc2ccc(Cl)cc2c(N2CC[C@H](C(=O)N3CCc4oncc4C3)[C@H](C)C2)c1C#N [Example 97, 6-chloro-4-[(3S,4S)-4-(6,7-dihydroisoxazolo[4,5-c]pyridin-5(4H)-ylcarbonyl)-3-methylpiperidin-1-yl]-2-methylquinoline-3-carbonitrile]
23 | 22 nM | CO[C@@H]1CN(c2c(C#N)cnc3ccc(Cl)cc23)CC[C@@H]1C(=O)N1CCn2c(nnc2C(F)(F)F)C1 [Example 72a, 6-chloro-4-[(3S,4S)-3-methoxy-4-{[3-(trifluoromethyl)-5,6-dihydro[1,2,4]triazolo[4,3-a]pyrazin-7(8H)-yl]carbonyl}piperidin-1-yl]quinoline-3-carbonitrile]
24 | 1.2 nM | CC1CN(c2c(C#N)cnc3ccc(C(F)(F)F)cc23)CCC1C(=O)N1CCn2c(nnc2C(F)(F)F)C1 (stereo not shown) [Example 119, 4-(3-methyl-4-{[3-(trifluoromethyl)-5,6-dihydro[1,2,4]triazolo[4,3-a]pyrazin-7(8H)-yl]carbonyl}piperidin-1-yl)-6-(trifluoromethyl)quinoline-3-carbonitrile]

same assay, conditions: read-out: Human CYP8B1 IC50; human liver microsomes; substrate 7a-hydroxy-4-cholesten-3-one, NADPH; RapidFire MS detection of 7α,12α-dihydroxy-4-cholesten-3-one

Row | IC50 | SMILES
25 | 0.3 nM | C[C@H]1CN(c2c(C#N)cnc3ccc(C(F)(F)F)cc23)CC[C@H]1C(=O)N1CCn2c(nnc2C(F)(F)F)C1 (single isomer, unassigned) [Example 119b]

Source: patent publication US10414774B2, “Compound useful for altering the levels of bile acids for the treatment of diabetes and cardiometabolc disease” (Merck Sharp & Dohme Corp., priority 2016, dated 2019)
